Among the data in patent US10703764B2, “Benzopiperazine compositions as BET bromodomain inhibitors” (FORMA Therapeutics, Inc., priority 2013, dated 2020) are IC50 values, retold here.

Each structure is given as a SMILES string. Like-named read-outs stand apart in the source and are kept apart here. A value given as a limit tells only on which side of the number the result lay.

The target in test [1] is T1, BRD4 BD2 (Homo sapiens, UniProt O60885).
T1 construct: made in house
Briefly: AlphaScreen binding assay, BRD4 Bromodomain 2. A digest of the protocol: (§1)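 Compound dilution series were mixed with His-tagged BRD4 bromodomain and biotinylated tetra-acetylated H4 (1-21) peptide at pH 7.3 (BD1 and peptide at 50 nM, BD2 and peptide at 100 nM). Donor and acceptor beads were then added, and plates were equilibrated at least 1 h before reading. IC50 values were fitted with a four-parameter logistic model.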

Test [2] has as its system MV4-11 cells. In words: Oncology cell growth assay (3-day proliferation, CellTiter-Glo). The format is cell-based. The conditions noted are these: Homo sapiens, AML cell line MV4-11, 72 hours, compounds grouped by IC50 range, read-out: MV4-11 IC50 (inhibition of proliferation, gIC50). A digest of the protocol:
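Luminescence from CellTiter-Glo served as the growth read-out after MV4-11 cells (3000/well) were cultured with compound for 72 hours. Final concentrations spanned 10 to 0.0045 μM in 3-fold steps. gIC50 values were derived by four-parameter logistic fitting relative to DMSO and cell-free controls.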

In test [3] the target is T2, BRD4 BD1 (Homo sapiens, UniProt O60885).
T2 construct: made in house
In words: AlphaScreen binding assay, BRD4 Bromodomain 1. A digest of the protocol:
as §1
Background: Alpha assays give light when donor and acceptor beads are brought close together.

Turning to `CC(=O)N1c2ccc(-c3cccc(S(=O)(=O)C4CC4)c3)cc2N(C(=O)C2CCC2)C[C@@H]1C` [Example I-1087], the IC50 in test [1] is 50 to 500 nM; in test [2] (MV4-11, 72 h) it was more than 500 nM; in test [3], 1000 to 10000 nM.
For `CC(=O)N1c2cc(C(N)=O)c(-c3cnn(C4CC4)c3)cc2N(C(=O)OC(C)C)C[C@@H]1C` [Example I-212, Isopropyl (S)-4-acetyl-6-carbamoyl-7-(1-cyclopropyl-1H-pyrazol-4-yl)-3-methyl-3,4-dihydroquinoxaline-1(2H)-carboxylate], the IC50 in test [1] fell in the range of 50 to 500 nM; in test [2] (MV4-11, 72 h), 100 to 500 nM; in test [3] it was 100 to 1000 nM.
For the molecule `CC(=O)N1c2ccc(-c3ccc(C(=O)N4CC[C@H](N)C4)cc3)cc2N(C(=O)OC(C)C)C[C@@H]1C` [Example I-586], the IC50 in test [1] is 50 to 500 nM; in test [2] (MV4-11, 72 h) it was 100 to 500 nM; in test [3], 100 to 1000 nM.
`CCOC(=O)N1C[C@H](C)N(C(C)=O)c2ccc(-c3ccc(S(=O)(=O)CC(C)C)cc3)cc21` [Example I-1080]: the IC50 in test [1] is 50 to 500 nM; in test [2] (MV4-11, 72 h), more than 500 nM; in test [3], 1000 to 10000 nM.
With `CC(=O)N1c2ccc(-c3ccc(S(C)(=O)=O)cc3)cc2N(C(=O)OC2CCOCC2)C[C@@H]1C` [Example I-496], the IC50 in test [1] was 50 to 500 nM; in test [2] (MV4-11, 72 h) it was 100 to 500 nM; in test [3] it was 100 to 1000 nM.
The corresponding values for `CC(=O)N1c2ccc(-c3ccc(S(=O)(=O)CC4CC4)cc3)cc2N(C(=O)C2CC2)C[C@@H]1C` [Example I-1074] are 50 to 500 nM, more than 500 nM and 1000 to 10000 nM.
In the case of `CC(=O)N1c2ccc(-c3cnn(C4COC4)c3)cc2N(C(=O)Oc2ccc(F)cc2)C[C@@H]1C` [Example I-85, 4-fluorophenyl (S)-4-acetyl-3-methyl-7-(1-(oxetan-3-yl)-1H-pyrazol-4-yl)-3,4-dihydroquinoxaline-1(2H)-carboxylate], the IC50 in test [1] was less than 50 nM; in test [2] (MV4-11, 72 h), 100 to 500 nM; in test [3], less than 100 nM.
The matching figures for `CC(=O)N1c2cc(C#N)c(-c3ccc(S(C)(=O)=O)cc3)cc2N(C(=O)OC(C)C)C[C@@H]1C` [Example I-219, Isopropyl (S)-4-acetyl-6-cyano-3-methyl-7-(4-(methylsulfonyl)phenyl)-3,4-dihydroquinoxaline-1(2H)-carboxylate]: more than 500 nM, more than 500 nM and 1000 to 10000 nM.
With `CC(=O)N1c2ccc(-c3ccc(C(=O)N4CCNCC4)cc3)cc2N(C(=O)Oc2ccccc2)C[C@@H]1C` [Example I-99, phenyl (S)-4-acetyl-3-methyl-7-(4-(piperazine-1-carbonyl)phenyl)-3,4-dihydroquinoxaline-1(2H)-carboxylate], the IC50 in test [1] is less than 50 nM; in test [2], less than 100 nM; in test [3], less than 100 nM.
For `COC(=O)N1c2ccc(-c3cnn(C4CC4)c3)cc2N(C(=O)OC2CCC2)C[C@@H]1C` [Example I-1005], the IC50 was 50 to 500 nM in test [1]; 100 to 500 nM in test [2] (MV4-11, 72 h); 100 to 1000 nM in test [3].
The matching figures for `CCOC(=O)N1C[C@H](C)N(C(C)=O)c2ccc(-c3ccc(N4CCOCC4)cc3)cc21` [Example I-1060]: 50 to 500 nM, more than 500 nM and 1000 to 10000 nM.
For the molecule `CC(=O)N1c2ccc(-c3ccc(N4CCCS4(=O)=O)cc3)cc2N(C(=O)OC2CCC(F)(F)CC2)C[C@@H]1C` [Example I-36, 4,4-difluorocyclohexyl (3S)-4-acetyl-7-[4-(1,1-dioxo-1λ^6,2-thiazolidin-2-yl)phenyl]-3-methyl-1,2,3,4-tetrahydroquinoxaline-1-carboxylate], the IC50 was in the range of 50 to 500 nM in test [1]; 100 to 500 nM in test [2] (MV4-11, 72 h); 1000 to 10000 nM in test [3].
With `CNS(=O)(=O)c1ccc(-c2ccc3c(c2)N(C(=O)OC(C)C)C[C@H](C)N3C(C)=O)cc1` [Example I-1122], the IC50 lay within 50 to 500 nM in test [1]; 100 to 500 nM in test [2] (MV4-11, 72 h); 100 to 1000 nM in test [3].
The matching figures for `COC(=O)N1c2ccc(-c3ccc(C(=O)N4CC[C@H](N(C)C)C4)cc3)cc2N(C(=O)OC(C)C)C[C@@H]1C` [Example I-567]: 50 to 500 nM, 100 to 500 nM and 100 to 1000 nM.
In the case of `CC(=O)N1c2ccc(-c3cnn(C(C)(C)CO)c3)cc2N(C(=O)Oc2ccc(F)cc2F)C[C@@H]1C` [Example I-1014], the IC50 is less than 50 nM in test [1]; 100 to 500 nM in test [2] (MV4-11, 72 h); 100 to 1000 nM in test [3].
The corresponding values for `CC(=O)N1c2ccc(-c3cnn(C4COC4)c3)cc2N(C(=O)Oc2ccccn2)C[C@@H]1C` [Example I-91, (S)-pyridin-2-yl 4-acetyl-3-methyl-7-(1-(oxetan-3-yl)-1H-pyrazol-4-yl)-3,4-dihydroquinoxaline-1(2H)-carboxylate] are less than 50 nM, 100 to 500 nM and less than 100 nM.
The corresponding values for `CC(=O)N1c2ccc(-c3ccc(S(=O)(=O)C(C)C)cc3)cc2N(C(=O)C2CCC2)C[C@@H]1C` [Example I-1063] are 50 to 500 nM, more than 500 nM and 1000 to 10000 nM.
The matching figures for `CC(=O)N1c2ccc(-c3ccc(NS(C)(=O)=O)c(C)c3)cc2N(C(=O)C2CCC2)C[C@@H]1C` [Example I-1172]: 50 to 500 nM, 100 to 500 nM and 100 to 1000 nM.
As for `CC(=O)N1c2ccc(-c3cnn(CC4CC4(F)F)c3)cc2N(C(=O)C2CC2)C[C@@H]1C` (stereo partly drawn) [Example I-148, 1-((S)-4-(cyclopropanecarbonyl)-6-(1-((2,2-difluorocyclopropyl)methyl)-1H-pyrazol-4-yl)-2-methyl-3,4-dihydroquinoxalin-1(2H)-yl)ethanone], the IC50 lay in the range of 50 to 500 nM in test [1]; 100 to 500 nM in test [2] (MV4-11, 72 h); 100 to 1000 nM in test [3].
On to `CC(=O)N1c2ccc(-c3cnn(C4CCNCC4)c3)cc2N(C(=O)Oc2ccccn2)C[C@@H]1C` [Example I-1332], for which the IC50 in test [1] is less than 50 nM; in test [2], less than 100 nM; in test [3] it was 100 to 1000 nM.
Turning to `CC(=O)N1c2ccc(-c3cnn(C4COC4)c3)cc2N(C(=O)C2CC2)C[C@@H]1C` [Example I-10, (S)-1-(4-(cyclopropanecarbonyl)-2-methyl-6-(1-(oxetan-3-yl)-1H-pyrazol-4-yl)-3,4-dihydroquinoxalin-1(2H)-yl)ethanone], the IC50 in test [1] lay in the range of 50 to 500 nM; in test [2] (MV4-11, 72 h) it was 100 to 500 nM; in test [3], 100 to 1000 nM.
The matching figures for `CC(C)OC(=O)N1C[C@H](C)N(C(=O)C2CC2)c2ccc(-c3cnn(CCN4CCOCC4)c3)cc21` [Example I-312]: 50 to 500 nM, 100 to 500 nM and 100 to 1000 nM.
The matching figures for `COC(=O)N1c2ccc(-c3cnn(Cc4ccncc4)c3)cc2N(C(=O)OC(C)C)C[C@@H]1C` [Example I-640]: 50 to 500 nM, more than 500 nM and 100 to 1000 nM.
With `CC(=O)N1c2ccc(-c3cnn(Cc4ncccn4)c3)cc2N(C(=O)C2CC2)C[C@@H]1C` [Example I-126, (S)-1-(4-(cyclopropanecarbonyl)-2-methyl-6-(1-(pyrimidin-2-ylmethyl)-1H-pyrazol-4-yl)-3,4-dihydroquinoxalin-1(2H)-yl)ethanone], the IC50 in test [1] was less than 50 nM; in test [2] (MV4-11, 72 h), more than 500 nM; in test [3] it was 1000 to 10000 nM.
The matching figures for `C[C@H]1CN(C(=O)c2ccco2)c2cc(-c3ccc(S(C)(=O)=O)cc3)ccc2N1C(=O)C1CC1` [Example I-364]: less than 50 nM, 100 to 500 nM and 100 to 1000 nM.
The corresponding values for `COc1ccc(-c2ccc3c(c2)N(C(=O)C2CCC2)C[C@H](C)N3C(C)=O)cc1NS(C)(=O)=O` [Example I-1140] are 50 to 500 nM, 100 to 500 nM and 1000 to 10000 nM.
Consider `CC(=O)N1c2ccc(-c3ccc(S(C)(=O)=O)cc3)cc2N(C(=O)Oc2ccc(C)cc2)C[C@@H]1C` [Example I-232], for which the IC50 is 50 to 500 nM in test [1]; less than 100 nM in test [2] (MV4-11, 72 h); 100 to 1000 nM in test [3].
The matching figures for `CNS(=O)(=O)c1ccc(-c2ccc3c(c2)N(C(=O)c2ccco2)C[C@H](C)N3C(C)=O)cc1` [Example I-875]: less than 50 nM, 100 to 500 nM and 100 to 1000 nM.
Consider `COC(=O)N1c2ccc(-c3cnn(C4CC4)c3)cc2N(C(=O)OC2CCCC2)C[C@@H]1C` [Example I-40, (S)-4-cyclopentyl 1-methyl 6-(1-cyclopropyl-1H-pyrazol-4-yl)-2-methyl-2,3-dihydroquinoxaline-1,4-dicarboxylate], for which the values for the IC50 in test [1], in test [2] and in test [3] were 50 to 500 nM, 100 to 500 nM and 100 to 1000 nM, respectively.
The matching figures for `COC(=O)N1c2ccc(-c3cnn(C4CC4)c3)cc2N(C(=O)C2CC2)C[C@@H]1C` [Example I-42, (S)-methyl 4-(cyclopropanecarbonyl)-6-(1-cyclopropyl-1H-pyrazol-4-yl)-2-methyl-3,4-dihydroquinoxaline-1 (2H)-carboxylate]: 50 to 500 nM, 100 to 500 nM and 100 to 1000 nM.
For the molecule `CCOC(=O)N1C[C@H](C)N(C(C)=O)c2ccc(-c3ccc(NS(C)(=O)=O)c(F)c3)cc21` [Example I-1182], the IC50 was 50 to 500 nM in test [1]; more than 500 nM in test [2] (MV4-11, 72 h); 100 to 1000 nM in test [3].
